Like-named read-outs stand apart in the source and are kept apart here.
Legend:
[1] = HPTS assay with TBAOH (electrogenic H+ or OH- transport); type: biochemical; details: sodium gluconate vesicles, pH 7.0; CCCP at 0.1 mol%; perenosins at loading giving 100% in NMDG-Cl assay
Protocol: S10.8. General Procedure for the HPTS Assay
Unilamellar vesicles were prepared using previously reported literature procedures16. A lipid film of POPC (1-palmitoyl-2-oleoyl-sn-glycero-3-phosphocholine) was prepared from a chloroform solution under reduced pressure and then dried under vacuum for 4 or more hours. The lipid film was rehydrated by vortexing with an internal solution containing HPTS (1 mM). The lipid suspension was then subjected to 9 freeze-thaw cycles and left to rest at room temperature for 30 minutes. After this, the suspension was extruded 25 times through a 200 nm polycarbonate membrane resulting in unilamellar vesicles of a mean diameter of 200 nm. The un-encapsulated HPTS was removed by size exclusion chromatography using a sephadex G-25 column and an external solution eluent that does not contain HPTS. […]
After 200 s, detergent (50 μL of Triton X-100 (11 w%) in H2O:DMSO (7:1 v/v)) was added to lyse the vesicles and after 5 mins a final reading was taken. […]
The fractional fluorescence intensity (If) was calculated using: […]
where Rt is the fluorescence ratio at time t, R0 is the fluorescence ratio at time 0 and Rd is the fluorescence ratio at the end of the experiment, after the addition of detergent. […]

[2] = test system: MDA-MB-231 cells; assay: MTT cell viability assay; type: cell-based; details: Homo sapiens, error from three repeats in brackets
Protocol: Herein, we carried out further in vitro studies at the University of Barcelona for the full library of perenosins. Single dose screening for cell viability using the methylthiazoletetrazolium (MTT) colorimetric assay over five different cell lines (cancer cells MCF-7, MDA-MB-231, A549 and SW620, and non-cancerous human cells MCF-10A) was conducted.
While perenosin 5, with pentyl substituent at R3, has similar cell viability effects as 1d, bis-indole perenosin 7 with pentyl substituent at R1 has a moderate degree of late onset by a factor of 7.
S11.1 Cell Lines and Culture Conditions
The human cell lines were obtained from the American Type Culture Collection (ATCC, Manassas VA). Breast adenocarcinoma MDA-MB-231 and MCF-7 cells were maintained in DMEM:F12 media (1:1; Biological Industries, Beit Haemek, Israel), and 10 µg/ml insulin and 50 µM sodium pyruvate from Sigma-Aldrich Chemical Co. (St. Louis, MO) were added to MCF-7 cells. Lung adenocarcinoma A549 and colorectal adenocarcinoma SW620 cells were cultured in DMEM media. All were supplemented with 10% foetal bovine serum (FBS; Invitrogen-Life Technologies, Carlsbad, CA) and 100 U/mL penicillin, 100 µg/mL streptomycin and 2 mM L-glutamine, all from Biological Industries.
Mammary epithelial MCF-10A cells were maintained in DMEM:F12 media supplemented with 5% horse serum (Life Technologies), 20 ng/ml EGF, 0.5 µg/ml Hydrocortisone, 100 ng/ml Cholera toxin, 10 µg/ml insulin all from Sigma-Aldrich and 100 U/ml penicillin, 100 µg/ml streptomycin, and 2 mM L- glutamine (Biological Industries). Cells were grown at 37 °C under a 5% CO2 atmosphere.
S11.2 Cell Viability Assays
Cell viability was evaluated using the methylthiazoletetrazolium (MTT) colorimetric assay. Cancer cells (MCF-7, MDA-MB-231, A549 and SW620) or non-cancerous human cells MCF-10A cells were harvested (10^4 cells/well) in 96-well plates in a final volume of 100 µl and allowed to grow overnight.
After 24 h, vehicle solution (DMSO) or experimental compounds were added at 10 µM (single point experiment) or at different ranging concentrations (0.8-100 µM) to the assay plate and were incubated for 24 or 72 h. Then, 10 µl of MTT (5 mg/ml; Sigma-Aldrich) were added and the plates were incubated for 4 h at 37°C. 100 µl of DMSO (Sigma-Aldrich) were added to dissolve crystals and the reading was taken spectrophotometrically at 570 nm using a multi-well plate reader (Multiskan FC, Thermo Scientific, Waltham, MA, USA). Cell viability and inhibitory concentration (IC) values were obtained using GraphPad Prism v5.0 (Graphpad Software, San Diego, CA, USA). All data are shown as the mean value ± standard deviation (S.D.) of three independent experiments.

[3] = MDA-MB-231, 24 h exposure, read-out: IC50 (24 h)
[4] = MDA-MB-231, 72 h exposure, read-out: IC50 (72 h)

| Structure (SMILES) | H+ or OH- transport (TBAOH base pulse) [1] | IC50 [2, 3] | IC50 [2, 4] |
| --- | --- | --- | --- |
| N#CC(C#N)=NNc1cccc(Cl)c1 [CCCP] | 100% | – | – |
| Cc1cc(C)c(/C=N/c2cc(C(F)(F)F)cc3cc[nH]c23)[nH]1 [Perenosin 1b] | – | 32.2 µM | 22.1 µM |
| COc1cc(/N=C/c2[nH]c(C)cc2C)c2[nH]ccc2c1 [Perenosin 1e] | – | 38.4 µM | 32.7 µM |
| Cc1cc(C)c(/C=N/c2cccc3cc[nH]c23)[nH]1 [Perenosin 1a] | – | 38.3 µM | 24.4 µM |
| Cc1cc(/N=C/c2[nH]c(C)cc2C)c2[nH]ccc2c1 [Perenosin 1c] | – | 34.4 µM | 20.4 µM |
